Laboratory results reported in patent US20210345611A1, “EXTENDED AND CONTINUOUS RELEASE COMPOSITIONS FOR PLANT HEALTH AND METHOD OF USE” (Verdesian Life Sciences U.S., LLC, priority 2018, published 2021).

Assay: PGA stability in 250 mM sodium phosphate aqueous buffers (HPLC)
Format: physicochemical
Description: Analytical note: PGA measurements in this section are done on a free acid basis using HPLC techniques, with PGA peak in each analysis checked for purity using UV-Vis spectroscopy technique by comparison with a known standard reference material. Experiments were conducted to determine the relative stability of PGA to degradation in 250 mM sodium phosphate aqueous buffers at pH levels of interest representing pH levels commonly found in soils. PGA is sufficiently stable at the pH levels of interest. PGA/pH 5.75 L-Pyroglutamic acid was dissolved to a concentration of about 1.0% in 250 mM sodium phosphate aqueous buffer at pH of 5.75, and stored for 24 hours at 50 degrees C. […] PGA/pH 6.75 L-Pyroglutamic acid was dissolved to a concentration of about 1.0% in 250 mM sodium phosphate aqueous buffer at pH of 6.75, and stored for 24 hours at 50 degrees C. […] PGA/pH 7.75 L-Pyroglutamic acid was dissolved to a concentration of about 1.0% in 250 mM sodium phosphate aqueous buffer at pH of 7.75, and stored for 24 hours at 50 degrees C.

Measured: decomposition by HPLC analysis

O=C1CC[C@@H](C(=O)O)N1 [L-Pyroglutamic acid]
No detectable decomposition: about 1.0% in 250 mM sodium phosphate buffer pH 5.75, 24 hours at 50 degrees C | about 1.0% in 250 mM sodium phosphate buffer pH 6.75, 24 hours at 50 degrees C | about 1.0% in 250 mM sodium phosphate buffer pH 7.75, 24 hours at 50 degrees C
